From patent publication US7410972B2, “Compounds” (AstraZeneca AB, priority 2001, dated 2008)

target: T1, human recombinant CCR4 receptor (Homo sapiens, UniProt P51679); test: FMAT Whole Cell Binding Assay (FB-MDC binding to CHO-K1 cells expressing CCR4); details: CHO-K1 cells stably expressing human recombinant CCR4; inhibition of FB-MDC fluorescent probe binding, two hours incubation at room temperature
T1 construct: Brussels, Belgium; host or cells: CHO-K1
T1 sequence (P51679 1-360): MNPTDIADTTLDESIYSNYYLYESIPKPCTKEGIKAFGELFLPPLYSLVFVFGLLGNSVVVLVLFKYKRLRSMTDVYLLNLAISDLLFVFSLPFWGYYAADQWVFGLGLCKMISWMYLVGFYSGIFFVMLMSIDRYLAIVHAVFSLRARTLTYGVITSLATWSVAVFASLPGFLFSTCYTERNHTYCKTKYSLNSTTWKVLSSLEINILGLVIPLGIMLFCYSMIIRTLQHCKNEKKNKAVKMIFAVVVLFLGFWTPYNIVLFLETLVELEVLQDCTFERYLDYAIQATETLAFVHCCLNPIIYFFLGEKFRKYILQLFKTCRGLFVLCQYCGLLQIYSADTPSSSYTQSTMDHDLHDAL
Experimental: FMAT Whole Cell Binding Assay
CHO-K1 cells stably expressing the human recombinant CCR4 receptor (Euroscreen; Brussels, Belgium) were cultured in NUT.MIX.F—12(HAM) medium with glutamax-1, containing 10% (v/v) foetal bovine serum and 400 μg ml^−1 geneticin.
Cells were harvested at approximately 70% confluence by treatment with a cell dissociation buffer, and seeded at 5×10^3 cells/100 μl culture medium into wells of a black Costar clear-bottomed 96-well microtitre plates. Plates were incubated overnight at 37° C. in 5% CO2 and used the following day.
Before use, the cell plates were washed twice with 100 μl Hanks balanced salt solution (HBSS). To each well was then added 65 μl of HBSS, 10 μL of 10% DMSO in HBSS±test compound and then 25 μL of 2.8 nM FB-MDC (Applied Biosystems). This fluorescent probe was prepared from a 10 μM stock in 0.08% (v/v) TFA/16% (v/v) acetonitrile, diluted into HBSS.
After two hours incubation in the dark at room temperature, the plates were analysed in an FMAT8100 reader (Applied Biosystems) to measure fluorescence that was associated with binding of FB-MDC to the cells. Compound activity was determined as an pIC50 [log(concentration of compound that results in 50% inhibition)], comparing fluorescence in control and background wells.
• Fluorescence (ctrl)=1200 • Fluorescence (bkg)=0

| Compound | IC50 |
| --- | --- |
| Cc1cnc(NS(=O)(=O)c2ccc(Cl)s2)c(OCc2cccnc2)n1 [Example 23, 5-Chloro-N-[5-methyl-3-(3-pyridinylmethoxy)-2-pyrazinyl]-2-thiophenesulphonamide] | 10 nM |
| COc1nc(Br)cnc1NS(=O)(=O)c1ccc(Cl)s1 [Example 1, N-(5-Bromo-3-methoxy-2-pyrazinyl)-5-chloro-2-thiophenesulphonamide] | 39.8 nM |
| COCCOc1nc(Br)cnc1NS(=O)(=O)c1ccc(Cl)s1 [Example 16, 5-Chloro-N-[5-bromo-3-(2-methoxyethoxy)-2-pyrazinyl]-2-thiophenesulphonamide] | 631 nM |

tested on: not given; test: not given; details: not given

| Compound | melting point |
| --- | --- |
| COc1nc(C#N)cnc1NS(=O)(=O)c1ccc(Cl)s1 [Example 31, 5-Chloro-N-[5-cyano-3-methoxy-2-pyrazinyl]-2-thiophenesulphonamide] | 218 to 219 °C |
| Cc1cnc(NS(=O)(=O)c2ccc(Cl)s2)c(OCc2cccnn2)n1 [Example 24, 5-Chloro-N-[5-methyl-3-(3-pyridazinylmethoxy)-2-pyrazinyl]-2-thiophenesulphonamide] | 179 to 181 °C |
| O=S(=O)(Nc1nc(Cl)cnc1OCc1ccco1)c1ccc(Cl)s1 [Example 20, 5-Chloro-N-[6 chloro-3-(2-furanylmethoxy)-2-pyrazinyl]-2-thiophenesulphonamide] | 130 to 133 °C |
| COc1nccnc1NS(=O)(=O)c1ccc(Cl)s1 [Example 26, 5-Chloro-N-(3-methoxy-2-pyrazinyl)-2-thiophenesulphonamide] | 119 to 120 °C |
| Cc1cnc(NS(=O)(=O)c2ccc(Cl)s2)c(OCc2cccnc2)n1 [Example 23, 5-Chloro-N-[5-methyl-3-(3-pyridinylmethoxy)-2-pyrazinyl]-2-thiophenesulphonamide] | 204 to 205 °C |
| COc1nc(SCCN)cnc1NS(=O)(=O)c1ccc(Cl)s1 [Example 30, N-[5-{(2-Aminoethyl)sulpanyl}-3-methoxy-2-pyrazinyl]-5-chloro-2-thiophenesulphonamide] | 192 to 194 °C |
| O=S(=O)(Nc1nccnc1OCc1ccccn1)c1ccc(Cl)s1 [Example 25, 5-Chloro-N-[3-(2-pyridinylmethoxy)-2-pyrazinyl]-2-thiophenesulphonamide] | 109 to 110 °C |
| O=S(=O)(Nc1nc(Cl)cnc1OCc1ccccn1)c1ccc(Cl)s1 [Example 22] | 171 to 172 °C |
| Cc1cc(COc2ncc(Cl)nc2NS(=O)(=O)c2ccc(Cl)s2)no1 [Example 21, 5-Chloro-N-[6-chloro-3-(5-methyl-3-isoxazolylmethoxy)2-pyrazinyl]-2-thiophenesulphonamide] | 141 to 142 °C |
| COc1nc(C)c(C)nc1NS(=O)(=O)c1ccc(Cl)s1 [Example 27, 5-Chloro-N-(5,6-dimethyl-3-methoxy-2-pyrazinyl)-2-thiophenesulphonamide] | 95 to 96 °C |
